Counter-ions that a name gives are not always drawn.
Columns and labels:
[1] = system: actively sensitized guinea pigs; assay: Nasal secretion on repeated nasal provocations with ovalbumin in actively sensitized guinea pigs; format: in vivo, guinea pig; settings: 1.0 mg/kg/day p.o.
Description: Active sensitization was carried out in a manner similar to the preparation of anti-ovalbumin serum mentioned above. Namely, 1 μg ovalbumin and 5 mg of aluminum hydroxide (adjuvant) in 1 ml of saline were injected into guinea pigs intraperitoneally 6 times every 2 weeks.
Two weeks after the active sensitization with ovalbumin, 50 μl of 1% ovalbumin in saline was administered into both anterior nares to start nasal provocation with allergen. Then the nasal provocations with ovalbumin were repeated 1, 4, 7, 10 and 13 days after the first provocation.
Defatted cotton threads (No. 40/2) were dyed with 10% fluorescein-Na in physiological saline at one end, and were cut to a total length of 100 mm with the colored end 10 mm in length. About 15 mm of the colored end of the thread was inserted into the left anterior naris of the guinea pigs for 60 sec. The length of thread dyed with fluorescein due to nasal secretion was taken as a measure of the amount of nasal secretion. (A few threads can be used together when the amount of nasal secretion is large).
Enhanced nasal mucosal sensitivity was measured by using animals obtained by repeated nasal provocations with ovalbumin in actively sensitized guinea pigs with the allergen according to the method of Examples 4, 5 and 6. The inhibitory action for nasal secretion of Ketotifen fumarate (1.0 mg/kg/day, p.o.) was also measured using this assay system.

[2] = system: passively sensitized SART stressed guinea pigs; assay: Nasal secretion (dyed thread length) after nasal provocation with ovalbumin in passively sensitized SART stressed guinea pigs; format: in vivo, guinea pig (male Hartley strain); settings: for Inhibition: inhibition of nasal secretion vs control
Description: Male Hartley strain guinea pigs weighing 300 to 500 g were used. The threshold of nasal mucosal sensitivity to methacholine of these animals was previously measured with a nasal thread dyed with fluorescein, and those guinea pigs having normal sensitivity were divided into groups of 7 or 8 animals making the average of the threshold of sensitivity substantially equal in each group. To load SART stress, the guinea pigs were kept in a thermostatic box at the environmental temperature of 0° C. and 24° C. alternately for one hour period from 10:00 a.m. to 5:00 p.m., and at 0° C. from 5:00 p.m. to 10:00 a.m. the next day. This stress loading was continued for 5 days prior to sensitization. The stress-loaded guinea pigs from the previous example were sensitized intraperitoneally using 20 μg of ovalbumin and 10 mg of aluminum hydroxide (adjuvant) in 1 ml of saline 7 times every 2 weeks. After 2 weeks of the sensitization, airway sensitization was performed by ultranebulization with 3 ml of 0.1% ovalbumin in saline for 5 consecutive days. One week later, nasal provocation was performed by application of 50 μl of 1% ovalbumin in saline on both anterior nares, and antiserum was collecting from guinea pigs showing typical nasal symptoms of nasal allergy such as sneeze, nasal secretion and asthma. This anti-ovalbumin serum was preserved at -80° C. The provocation was made by application of 50 μl of 1% ovalbumin on the left anterior naris 2 days after passive sensitization by intraperitoneally injecting 2 ml of diluted anti-ovalbumin serum from the previous example (diluted ratio;×1/8). […] Defatted cotton threads (No. 40/2) were dyed with 10% fluorescein-Na in physiological saline at one end, and were cut to a total length of 100 mm with the colored end 10 mm in length. About 15 mm of the colored end of the thread was inserted into the left anterior naris of the guinea pigs for 60 sec. The length of thread dyed with fluorescein due to nasal secretion was taken as a measure of the amount of nasal secretion. (A few threads can be used together when the amount of nasal secretion is large). […] The amount of nasal secretion was measured by the length of the colored portion of the thread dyed with fluorescein.

[3] = Ketotifen fumarate 0.3 mg/kg/day p.o.
[4] = Ketotifen fumarate 1.0 mg/kg/day p.o.
[5] = Ketotifen fumarate 3.0 mg/kg/day p.o.

SMILES: CN1CCC(=C2c3ccccc3CC(=O)c3sccc32)CC1 [Ketotifen, Ketotifen fumarate]
- Nasal secretion ([1]; 1st provocation with allergen): 68.9 mm
- Nasal secretion ([1]; 2nd provocation with allergen (1 day)): 54.1 mm
- Nasal secretion ([1]; 3rd provocation with allergen (4 days)): 73.0 mm
- Nasal secretion ([1]; 4th provocation with allergen (7 days)): 68.5 mm
- Nasal secretion ([1]; 5th provocation with allergen (10 days)): 77.3 mm
- Nasal secretion ([1]; 6th provocation with allergen (13 days)): 96.9 mm
- Nasal secretion [2, 3]: 33.5 mm
- Nasal secretion [2, 4]: 23.9 mm
- Nasal secretion [2, 5]: 16.1 mm
- Inhibition [2, 3]: 25.5%
- Inhibition [2, 4]: 46.9%
- Inhibition [2, 5]: 64.2%

Source: patent US5063045A, “Method for evaluating antiallergic substances” (Nippon Zoki Pharmaceutical Co., Ltd., priority 1989, dated 1991)
